Values of other authors in publication PMC12840679, “Rational Design, Synthesis and Pharmacological Evaluation of Chalcones as Dual-Acting Compounds—Histamine H3 Receptor Ligands and MAO-B Inhibitors” (International Journal of Molecular Sciences, 2026).

Target: hH3R (Homo sapiens, UniProt Q9Y5N1)
Conditions: HEK293 cells

hH3R, sequence (Q9Y5N1 whole entry): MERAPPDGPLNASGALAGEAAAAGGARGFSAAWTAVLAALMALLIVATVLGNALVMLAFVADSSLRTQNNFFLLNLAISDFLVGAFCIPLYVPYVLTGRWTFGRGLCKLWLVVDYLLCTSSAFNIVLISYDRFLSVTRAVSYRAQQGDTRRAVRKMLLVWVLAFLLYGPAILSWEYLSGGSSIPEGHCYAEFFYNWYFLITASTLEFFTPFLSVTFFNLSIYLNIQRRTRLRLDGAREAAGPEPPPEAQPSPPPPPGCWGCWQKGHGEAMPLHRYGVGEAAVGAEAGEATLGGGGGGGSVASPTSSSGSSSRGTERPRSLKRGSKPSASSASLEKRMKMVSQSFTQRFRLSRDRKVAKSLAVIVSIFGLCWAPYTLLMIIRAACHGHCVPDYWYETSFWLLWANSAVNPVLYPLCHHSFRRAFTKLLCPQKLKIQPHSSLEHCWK

Ki: 58 nM
SMILES: CC(C)(C)c1ccc(OCCCN2CCCCC2)cc1 [DL76]
